Reference: a melting point compilation (Tetko et al.; mined from patent text by program, amines drawn as free bases though some values may be those of a salt)

| Compound | melting point |
| --- | --- |
| C=CCN1C(=O)C(C)N(c2ccc(Oc3ccccc3)cc2)C1=S (centres undefined) | 77 °C |
| CN(C)CCOc1ccc(/C=C/C(=O)N2CC(CCl)c3c2cc(OCc2ccccc2)c2ncccc32)cc1 (centres undefined) | 172 to 175 °C |
| COc1ccc(C=Cc2cc(OC)c(OC)c(OC)c2)cc1OC | 150 to 152 °C |
| CC(C)(C)c1ccc2c(Cl)c3ccccc3c(C=O)c2c1 | 126 to 129 °C |
| COc1cc(N2CCOCC2)ccc1Nc1nc(Nc2cc(F)cc3c2OCCNC3=O)ncc1Cl | > 230 °C |
| O=C(O)c1cnc2ccc(-c3ccc(C(F)(F)F)cc3)cn12 | 220 °C |
| COc1cc2c(cc1OC)CCCC(C(=O)N1CCN(Cc3cc(OC)c(OC)c(OC)c3)C(C(=O)O)C1)=C2 (centres undefined) | 142 to 144 °C |
| O=C(c1ccc(Cl)cc1)c1ccc(CSC(F)F)cc1 | 34 to 35 °C |
| COc1ccc(C2=CCC(N3CCN(Cc4ccccc4)CC3)CC2)cc1 (centres undefined) | 126 to 128 °C |
| O=C(O)Cc1ccc(NC(=O)c2ccccc2)cc1 | 207 to 208 °C |
| O=[N+]([O-])c1cccc(/C=C/c2ccc3ccccc3n2)c1 | 145 to 147 °C |
| Clc1ccc(CC[C@H]2CN(Cc3ccccc3)CCN2Cc2ccccc2)cc1 | 87 to 90 °C |
| O=C(O)CCC/C=C/c1ccc2ccccc2n1 | 142 to 144 °C |
| COc1cc(Nc2nnc(Cc3ccncc3)c3ccccc23)cc(OC)c1OC | 110 to 111 °C |
| O=C1CCCN1[C@H]1CC[C@@H](C(=O)O)CC1 | 188 °C |
| COC(=O)CCCc1ccc(S(=O)(=O)Nc2ccc(Cl)cc2)cn1 | 80 to 81 °C |
| Fc1ccc(-c2nn3c(-c4ccccc4)cc(-c4ccccc4)nc3c2-c2ccncc2)cc1 | 243 to 245 °C |
| O=C(/C=C/c1ccc(N2CCOCC2)cc1)CC(=O)/C=C/c1ccc2cc[nH]c2c1 | 93 to 97 °C |
| C=CCOC(=O)c1ccc(N=Cc2ccc3c(c2Cl)C(C)(C)CCC3(C)C)cc1 | 80 °C |
| CC(C)NC(=O)C1c2cc(NC(=O)c3cc(C(F)(F)F)nn3-c3ncccc3Cl)c(Cl)cc2CC1O (centres undefined) | 204 to 205 °C |

| Compound | melting point |
| --- | --- |
| CNC(=O)CNC(=O)c1ccc(C)c(-n2c(C)cc(OCc3ccccc3CNC(=O)Nc3cc(C(C)(C)C)nn3-c3ccc(Cl)c(O)c3)c(Cl)c2=O)c1 | 179 to 181 °C |
| Nc1ccccc1NS(=O)(=O)c1cc(C(=O)O)cc(NCc2ccco2)c1Oc1ccccc1 | 105 to 110 °C |
| O=C(NCc1ccccc1)c1ccnc(NC(=O)c2cccc(C(F)(F)F)c2)c1 | 87 to 88 °C |
| COc1ccc(C(Cc2cnccn2)c2ccccc2)cc1OC1CCCC1 (centres undefined) | 71.5 to 72 °C |
| O=C(O)C(=O)c1ccc(OC/C=C/c2ccc(F)cc2)cc1 | 132 to 133 °C |
| COC(C)(OC)OC(=O)N[C@@H](Cc1cn(S(=O)(=O)c2ccc(C)cc2)cn1)C(=O)O | 120 °C |
| Cn1cncc1C(O)(c1ccc(Cl)cc1)c1ccc2c(c1)C(c1cccc(Cl)c1)SCC(=O)N2 (centres undefined) | 210 °C |
| NC(=O)N(c1ccccc1)c1nc(Cl)nc(Cl)n1 | 151 to 154 °C |
| Cc1cc(O)c(Oc2ccccc2C#N)cc1Br | 99 to 101 °C |
| O=C1CCC(N2Cc3c(OCc4ccc(CN5CCC(F)(F)CC5)cc4)cccc3C2=O)C(=O)N1 (centres undefined) | 193 to 195 °C |
| Nc1cccc(C(=O)c2ccc(Cl)cc2)c1 | 114 to 115 °C |
| Fc1ccc(-c2[nH]c(C3CCCNC3)nc2-c2ccncc2)cc1 (centres undefined) | 252 to 254 °C |
| CCc1nc2c(cnn2CC)c(NC2CCOCC2)c1CNC(=O)c1cccc(C(=O)NCc2ccc(Cl)c(-c3cccc(CN4CCCN(C)CC4)c3)c2)c1 | 105 to 107 °C |
| Oc1cc(Br)c(Br)cc1O | 110 to 111 °C |
| COc1cc(-c2nc3ccc(OCCN4CCN(C)CC4)cc3n2Cc2ccccc2)cc(OC)c1OC | 113 °C |
| CCOC(=O)C1(C(=O)OCC)CCC2(NCCc3cc(OC)c(OC)cc32)C(C2c3cc(OC)c(OC)cc3CCN2C(C)=O)C1 (centres undefined) | 146 to 149 °C |
| CN(Cc1ccc(NC(=O)C2=Cc3cc(-c4ccc5c(c4)OCCCO5)ccc3S(=O)(=O)CC2)cc1)C1CCOCC1 | 242 to 245 °C |
| CC(C)(Cc1ccc(Cl)cc1Cl)C(O)(Cn1cncn1)Cn1cncn1 | 126 °C |
| Oc1nsnc1-c1c(Cl)cccc1Cl | 194 to 195 °C |

Results, then the molecule that gave them:

| melting point | Compound |
| --- | --- |
| 158 °C | CCOCn1c(C(OC(C)=O)c2ccccc2)c(C(C)C)c(=O)[nH]c1=O (centres undefined) |
| 78 to 80 °C | CCN(CC)Cc1csc(N)c1C(=O)c1ccc(Cl)cc1 |
| 135 to 141 °C | CCC1CCCCN1C(=O)C=Cc1c(-c2cccc(NC)c2)nn2ccccc12 (centres undefined) |
| 243 to 244 °C | CC(=O)N(C)N(C)c1ccnc2c(NC(=O)c3c(Cl)cccc3Cl)cccc12 |
| 189 to 192 °C | O=C1OC[C@@H](CO)N1c1nc(-c2ccc(Br)cc2)cs1 |
| 76 to 80 °C | CCCc1c(C(=O)N(C)Cc2ccc3c(Br)c(OCC#N)ccc3c2)cnn1-c1ccccc1 |
| 143 to 144 °C | COc1ccc2c(ccn2CC2(c3ccccc3Br)OCCO2)n1 |
| 99.5 to 100 °C | COc1ccc(S(=O)(=O)N(C)C)cc1C(=O)NCc1ccc(OCCN(C)C)cc1 |
| 245 °C | CCN1CCN(c2ccc(-c3[nH]nc4c3C(=O)c3c(NC(=O)NN5CCOCC5)cccc3-4)cc2)CC1 |
| 183 to 186 °C | COc1ccc2c(c1)CN(c1ccc3sccc3c1)C2=O |
| 129 to 132 °C | Cc1c(Cl)cc(C(=O)CC(Cl)C(=O)O)cc1Cl (centres undefined) |
| 61 to 63 °C | COc1ccc2cccc(C=O)c2c1 |
| 112 to 115 °C | CCCc1cccc(N2CC(=O)N(C)C(=O)N2)c1 |
| 83 to 84 °C | CC(C)=CCOc1ccc2c(=O)c(C)c(-c3ccccc3)oc2c1C(=O)C=Cc1ccccc1 |
| 161 °C | CC(C)=CCN1Cc2c(Br)ccc3[nH]c(=S)n(c23)C[C@@H]1C |
| 69 to 71 °C | COC(=O)C(O)c1ccccc1[N+](=O)[O-] (centres undefined) |
| 187 °C | CCOC(=O)C1=C(N)N=C(SCC)C(C(=O)OCC)C1c1cccc([N+](=O)[O-])c1 (centres undefined) |
| 159 to 160 °C | C#CCN1N=C(c2ccc(Cl)cc2)CN(C)C1=O |
| 152 to 154 °C | C[C@H]1C(=O)Nc2c(N)cc(Cl)cc2N1C(=O)OCc1ccccc1 |
| 184 °C | Cc1ccc(Cc2cnc(NCCCCNc3ccccn3)[nH]c2=O)cn1 |
| 125 to 127 °C | Cn1ncc(C(=O)C2CC2)c1S(N)(=O)=O |
| > 232 °C | CCC(CC)n1c(=O)sc2c(=O)[nH]c(N)nc21 |
| 173 to 174 °C | COc1cc2ncnc(N3CCC(C(C)CN4CCCS4(=O)=O)C(O)C3)c2cc1OC (centres undefined) |
| 261 to 262 °C | CN(C)c1nc2sc3c(NCCc4c[nH]cn4)ncnc3c2c2c1CCC2(C)C |
| 199 to 200 °C | O=Cc1c2ccc3ccccc3c2cc2ccsc12 |
| 190 to 240 °C | O=C1C(=O)c2ccc(-c3ccc(C(F)(F)F)cc3)cc2C2=C1SCC1(CCNCC1)O2 |
| > 330 °C | O=C1Cc2c([nH]c3ccc(I)cc23)-c2ncccc2N1 |
| 176 °C | CCc1sc2c(c1S(=O)(=O)c1ccc(O)cc1)CN(Cc1ccccc1Cl)CC2 |
| 99 to 100 °C | Cc1cc(-n2cncn2)c2cccc(C)c2n1 |
| 208 to 209 °C | O=C(NCc1cccc(-c2nc(=O)c3ccccc3s2)n1)c1cccs1 |
